Where a name gives a salt, the structure may show the parent alone. Read-outs that look alike come from different tables or passages of the source.
What was measured:
Format in all cases: biochemical
recombinant PRL-1 = target: T1, recombinant PRL-1 (Homo sapiens, UniProt Q93096); experiment: In vitro phosphatase assay (DiFMUP hydrolysis), PRL-1; also: test concentration or dose not given here
T1 construct: 6xHis (N, cleaved yes); made in house; host or cells: E. coli One Shot BL21 Star
T1 sequence (Q93096 1-173): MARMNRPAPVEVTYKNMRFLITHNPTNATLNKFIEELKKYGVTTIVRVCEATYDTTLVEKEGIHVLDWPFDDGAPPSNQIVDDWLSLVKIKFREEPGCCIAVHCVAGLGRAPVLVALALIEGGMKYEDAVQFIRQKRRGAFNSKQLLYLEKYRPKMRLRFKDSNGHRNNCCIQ

recombinant PRL-2 = target: T2, recombinant PRL-2 (Homo sapiens, UniProt Q12974); experiment: In vitro phosphatase assay (DiFMUP hydrolysis), PRL-2;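 also: PRL-2 activity read as DiFMUP hydrolysis after 20 min at room temperature with drug, enzyme first pre-reduced at 4 °C for 20 min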
T2 construct: 6xHis (N, cleaved yes); made in house; host or cells: E. coli One Shot BL21 Star
T2 sequence (Q12974 1-167): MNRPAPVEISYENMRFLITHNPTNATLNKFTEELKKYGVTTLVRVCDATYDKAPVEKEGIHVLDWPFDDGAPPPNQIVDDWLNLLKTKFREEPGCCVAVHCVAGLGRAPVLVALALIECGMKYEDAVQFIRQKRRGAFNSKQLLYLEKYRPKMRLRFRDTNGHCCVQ

recombinant PRL-3 = target: T3, recombinant PRL-3 (Homo sapiens, UniProt O75365); experiment: In vitro phosphatase assay (DiFMUP hydrolysis), PRL-3; also: test concentration or dose not given here
T3 construct: 6xHis (N, cleaved yes); made in house; host or cells: E. coli One Shot BL21 Star
T3 sequence (O75365 whole entry): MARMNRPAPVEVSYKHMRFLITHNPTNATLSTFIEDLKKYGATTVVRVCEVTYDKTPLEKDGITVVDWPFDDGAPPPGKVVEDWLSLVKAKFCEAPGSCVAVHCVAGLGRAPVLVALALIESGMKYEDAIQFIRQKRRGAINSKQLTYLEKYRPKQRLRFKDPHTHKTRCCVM

[1] = FDA-approved drug screen, compared to DMSO

Row | Compound | % Phosphatase Activity (compared to DMSO) PRL-1 (recombinant PRL-1; [1]) [%] | % Phosphatase Activity (compared to DMSO) PRL-2 (recombinant PRL-2; [1]) [%] | % Phosphatase Activity (compared to DMSO) PRL-3 (recombinant PRL-3; [1]) [%] | % Phosphatase Activity (compared to DMSO) PRL-1 (recombinant PRL-1) [%] | % Phosphatase Activity (compared to DMSO) PRL-2 (recombinant PRL-2) [%] | % Phosphatase Activity (compared to DMSO) PRL-3 (recombinant PRL-3) [%]
1 | CCN(CC)CCOC(=O)c1ccc(N)cc1 [Procaine] | 102 | 94 | 80 |  |  | 
2 | CNNCc1ccc(C(=O)NC(C)C)cc1 [Procarbazine HCl] | 103 | 90 | 87 |  |  | 
3 | CN1CCN(CCCN2c3ccccc3Sc3ccc(Cl)cc32)CC1.O=C(O)/C=C\C(=O)O.O=C(O)/C=C\C(=O)O [Prochlorperazine dimaleate salt] | 93 | 108 | 91 |  |  | 
4 | O=C(O)CCc1nc2ccccc2[nH]1 [Procodazole] | 98 | 85 | 86 |  |  | 
5 | OC(CCN1CCCC1)(c1ccccc1)C1CCCCC1 (stereo not drawn) [Procyclidine HCl] | 112 | 118 | 95 |  |  | 
6 | Nc1ccc2cc3ccc(N)cc3nc2c1 [Proflavine Hemisulfate] | 81 | 61 | 100 |  |  | 
7 | CC(=O)[C@H]1CC[C@H]2[C@@H]3CCC4=CC(=O)CC[C@]4(C)[C@H]3CC[C@]12C [Progesterone] | 90 | 96 | 76 |  |  | 
8 | CC(CN1c2ccccc2Sc2ccccc21)N(C)C.Cl (stereo not drawn) [Promethazine HCl] | 99 | 106 | 77 |  |  | 
9 | CCCNCC(O)COc1ccccc1C(=O)CCc1ccccc1 (stereo not drawn) [Propafenone HCl] | 98 | 114 | 79 |  |  | 
10 | CCCOc1ccc(C(=O)OCCN(CC)CC)cc1N [Proparacaine HCl] | 78 | 108 | 96 |  |  | 
11 | CC(C)NCC(O)COc1cccc2ccccc12.Cl (stereo not drawn) [Propranolol HCl] | 95 | 128 | 70 |  |  | 
12 | CCCc1cc(=O)[nH]c(=S)[nH]1 [Propylthiouracil] |  |  |  | 94 | 93 | 91
13 | CCCc1cc(C(N)=S)ccn1 [Protionamide] | 100 | 101 | 97 |  |  | 
14 | NC(=O)[C@@H]1CCCN1C(=O)[C@H](Cc1cnc[nH]1)NC(=O)[C@@H]1CCC(=O)N1 [Protirelin] | 97 | 91 | 106 |  |  | 
15 | COCCCN1CCC(NC(=O)c2cc(Cl)c(N)c3c2OCC3)CC1.O=C(O)CCC(=O)O [Prucalopride Succinat] | 76 | 77 | 85 |  |  | 
16 | COCCCN1CCC(NC(=O)c2cc(Cl)c(N)c3c2OCC3)CC1 [Prucalopride] | 97 | 113 | 85 |  |  | 
17 | COc1ccc(C[C@H](N)C(=O)N[C@H]2[C@@H](O)[C@H](n3cnc4c(N(C)C)ncnc43)O[C@@H]2CO)cc1.Cl.Cl [Puromycin 2HCl] | 106 | 101 | 113 |  |  | 
18 | NC(=O)c1cnccn1 [Pyrazinamide] | 85 | 93 | 95 |  |  | 
19 | CN(C)C(=O)Oc1ccc[n+](C)c1 [Pyridostigmine Bromide] | 106 | 109 | 77 |  |  | 
20 | Cc1ncc(CO)c(CO)c1O [Pyridoxine HCl] | 100 | 102 | 91 |  |  | 

Row | Compound | % Phosphatase Activity (compared to DMSO) PRL-1 (recombinant PRL-1; [1]) [%] | % Phosphatase Activity (compared to DMSO) PRL-2 (recombinant PRL-2; [1]) [%] | % Phosphatase Activity (compared to DMSO) PRL-3 (recombinant PRL-3; [1]) [%] | % Phosphatase Activity (compared to DMSO) PRL-1 (recombinant PRL-1) [%] | % Phosphatase Activity (compared to DMSO) PRL-2 (recombinant PRL-2) [%] | % Phosphatase Activity (compared to DMSO) PRL-3 (recombinant PRL-3) [%]
21 | COc1ccc(CN(CCN(C)C)c2ccccn2)cc1 [Pyrilamine Maleate] | 94 | 111 | 98 |  |  | 
22 | OCCOCCN1CCN(C2=Nc3ccccc3Sc3ccccc32)CC1 [Quetiapine Fumarate] |  |  |  | 80 | 87 | 93
23 | CCOC(=O)[C@H](CCc1ccccc1)N[C@@H](C)C(=O)N1Cc2ccccc2C[C@H]1C(=O)O [Quinapril HCl] | 92 | 106 | 80 |  |  | 
24 | Cn1cc(CNCC2CCN(c3ncc(C(=O)NO)cn3)CC2)c2ccccc21 [Quisinostat (JNJ-26481585)] | 121 | 109 | 92 |  |  | 
25 | CC(C)(C)c1cc(NC(=O)Nc2ccc(-c3cn4c(n3)sc3cc(OCCN5CCOCC5)ccc34)cc2)no1 [Quizartinib (AC220)] | 112 | 114 | 97 |  |  | 
26 | COc1cc(Nc2ncc(F)c(Nc3ccc4c(n3)N(COP(=O)([O-])[O-])C(=O)C(C)(C)O4)n2)cc(OC)c1OC.[Na+].[Na+] [R788 (Fostamatinib) Disodium] | 90 | 119 | 88 |  |  | 
27 | CC(=O)SCC(Cc1ccccc1)C(=O)NCC(=O)OCc1ccccc1 (stereo not drawn) [Racecadotril] | 95 | 99 | 76 |  |  | 
28 | Cc1cn(-c2cc(NC(=O)c3ccc(C)c(Nc4nccc(-c5cnccn5)n4)c3)cc(C(F)(F)F)c2)cn1 [Radotinib] | 96 | 83 | 89 |  |  | 
29 | O=C(c1ccc(OCCN2CCCCC2)cc1)c1c(-c2ccc(O)cc2)sc2cc(O)ccc12 [Raloxifene HCl] | 95 | 96 | 74 |  |  | 
30 | Cc1nnc(C(=O)NC(C)(C)c2nc(C(=O)NCc3ccc(F)cc3)c(O)c(=O)n2C)o1 [Raltegravir (MK-0518)] | 96 | 105 | 90 |  |  | 
31 | Cc1nc2ccc(CN(C)c3ccc(C(=O)N[C@@H](CCC(=O)O)C(=O)O)s3)cc2c(=O)[nH]1 [Raltitrexed] | 80 | 71 | 71 |  |  | 
32 | CCC(=O)NCC[C@@H]1CCc2ccc3c(c21)CCO3 [Ramelteon] | 91 | 96 | 73 |  |  | 
33 | CCOC(=O)[C@H](CCc1ccccc1)N[C@@H](C)C(=O)N1[C@H](C(=O)O)C[C@@H]2CCC[C@@H]21 [Ramipril] | 84 | 86 | 93 |  |  | 
34 | CNC(=C[N+](=O)[O-])NCCSCc1ccc(CN(C)C)o1 [Ranitidine] | 93 | 102 | 103 |  |  | 
35 | COc1ccccc1OCC(O)CN1CCN(CC(=O)Nc2c(C)cccc2C)CC1.Cl.Cl (stereo not drawn) [Ranolazine 2HCl] | 107 | 99 | 97 |  |  | 
36 | COc1ccccc1OCC(O)CN1CCN(CC(=O)Nc2c(C)cccc2C)CC1 (stereo not drawn) [Ranolazine] | 90 | 99 | 118 |  |  | 
37 | CO[C@H]1C[C@@H]2CC[C@@H](C)[C@@](O)(O2)C(=O)C(=O)N2CCCC[C@H]2C(=O)O[C@H]([C@H](C)C[C@@H]2CC[C@@H](O)[C@H](OC)C2)CC(=O)[C@H](C)/C=C(\C)[C@@H](O)[C@@H](OC)C(=O)[C@H](C)C[C@H](C)/C=C/C=C/C=C/1C [Rapamycin (Sirolimus)] | 88 | 89 | 75 |  |  | 
38 | C#CCN[C@@H]1CCc2ccccc21 [Rasagiline Mesylate] |  |  |  | 116 | 130 | 99
39 | O=C(NC(Cc1cc(=O)[nH]c2ccccc12)C(=O)O)c1ccc(Cl)cc1 (stereo not drawn) [Rebamipide] | 88 | 93 | 92 |  |  | 
40 | COCCCOc1ccnc(C[S+]([O-])c2nc3ccccc3[n-]2)c1C.[Na+] (stereo not drawn) [Rebeprazole sodium] | 97 | 99 | 78 |  |  | 

— publication PMC8119466, “A screen of FDA-approved drugs identifies inhibitors of protein tyrosine phosphatase 4A3 (PTP4A3 or PRL-3)” (Scientific Reports, 2021)
